Molecular target: T1, KRAS G12C (GMPPNP-loaded) and cRAF Ras-binding domain (Homo sapiens, UniProt P01116, C118S/C51S/C80L/G12C)
T1 construct: truncated version comprising amino acids 1-169
Test: Inhibition of KRAS G12C and cRAF binding (AlphaScreen)
Settings: KRAS G12C preloaded with GTP analogue GMPPNP, 2 hours preincubation
Method in brief: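 AlphaScreen used biotin-AviTag KRAS G12C (Cys-light, aa 1-169; 0.5 nM), GMPPNP-loaded, preincubated 2 h with compound (top 50 μM, 1:3, 10 points, 2% DMSO) in pH 7.4 Hepes buffer with 10 μM GMPPNP. GST-cRAF RBD (aa 50-131; 0.75 nM) plus beads were then added for 60-90 min at room temperature, and IC50 came from a 4-parameter fit.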

T1 sequence (P01116 1-169 isoform P01116-2 G12C/C51S/C80L/C118S): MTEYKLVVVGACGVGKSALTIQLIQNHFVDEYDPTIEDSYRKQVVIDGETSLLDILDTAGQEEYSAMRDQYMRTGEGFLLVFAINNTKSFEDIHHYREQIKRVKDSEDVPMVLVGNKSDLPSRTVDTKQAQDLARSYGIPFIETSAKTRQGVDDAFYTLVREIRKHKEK

Row | SMILES | IC50
1 | Cc1cc(N)nc(-c2ncc3c(N(C)CC4CN(C(=O)/C=C/c5nc(C(C)(C)O)no5)C4)nc(OC[C@@]45CCCN4C[C@H](F)C5)nc3c2F)c1C(F)(F)F [Example 97] | 10 to 100 nM
2 | Cc1cc(/C=C/C(=O)N2CC(CN(C)c3nc(OC[C@@]45CCCN4C[C@H](F)C5)nc4c(F)c(-c5cc(O)cc(Cl)c5C5CC5)ncc34)C2)nc(C)n1 [Example 204] | 100 to 500 nM
3 | C=CC(=O)N1CC[C@@H](N(C)c2nc(OC[C@@]34CCCN3C[C@H](F)C4)nc3c(F)c(-c4cccc5cn[nH]c45)ncc23)C1 [Example 264] | ≥ 500 nM
4 | Cc1noc(/C=C/C(=O)N2CC[C@@H](N(C)c3nc(OC[C@@]45CCCN4C[C@H](F)C5)nc4c3CC(C)C(c3nc(N)cc(C)c3C(F)(F)F)C4)C2)n1 (some centres unmarked) [Example 115] | < 10 nM
5 | CN(c1nc(OC[C@@]23CCCN2C[C@H](F)C3)nc2c(F)c(-c3nc(N)cc4cccc(Cl)c34)ncc12)[C@@H]1CCN(C(=O)/C=C/c2nc(C(C)(C)O)no2)C1 [Example 93] | < 10 nM
